Experimental data: ChEMBL document CHEMBL5634158, “From garden to lab: C-3 chemical modifications of tomatidine unveil broad-spectrum ATP synthase inhibitors to combat bacterial resistance” (Eur J Med Chem, 2023)
Converted amounts (≈) assume the structure as drawn.

What was measured:
Escherichia coli [1] = assay: Antibacterial activity against Escherichia coli ATCC 25922 assessed as reduction in microbial growth incubated for 20 hrs under aerobic condition by CLSI based broth microdilution method; format: functional
Staphylococcus aureus [2] = assay: Antibacterial activity against Staphylococcus aureus ATCC 29213 assessed as reduction in microbial growth incubated for 20 hrs under aerobic condition by CLSI based broth microdilution method; format: functional
Escherichia coli [3] = assay: Antibacterial activity against Escherichia coli MC4100 assessed as reduction in bacterial growth by CLSI based broth microdilution method; format: functional
Escherichia coli [4] = assay: Antibacterial activity against Escherichia coli MC4100 harbouring acrAB mutant assessed as reduction in bacterial growth by CLSI based broth microdilution method; format: functional
Escherichia coli [5] = assay: Antibacterial activity against Escherichia coli MC4100 harbouring lptD mutant assessed as reduction in bacterial growth by CLSI based broth microdilution method; format: functional
[6] = Inhibition of Escherichia coli ATCC 25922 ATP synthase activity preincubated for 30 mins followed by NADH/ADP addition and measured after 60 mins by luciferin/luciferase luminescence assay
Staphylococcus aureus [7] = assay: Antibacterial activity against Staphylococcus aureus ATCC 29213 hemB SCV assessed as reduction in microbial growth incubated for 20 hrs under aerobic condition by CLSI based broth microdilution method; format: functional
Escherichia coli [8] = assay: Antibacterial activity against Escherichia coli ATCC 25922 assessed as fold decrease in MIC for 20 hrs under aerobic condition by CLSI based broth microdilution method; format: functional
[9] = Inhibition of Staphylococcus aureus ATCC 29213 ATP synthase activity preincubated for 30 mins followed by NADH/ADP addition and measured after 60 mins by luciferin/luciferase luminescence assay

Row | MIC (Escherichia coli [1]) | MIC (Staphylococcus aureus [2]) | MIC (Staphylococcus aureus [7]) | SMILES | MIC (Escherichia coli [3]) | MIC (Escherichia coli [4]) | MIC (Escherichia coli [5]) | IC50 [6] | fold change (FC) (Escherichia coli [8]) | IC50 [9]
1 | 8 µg/mL | 2 µg/mL | ≤ 0.25 µg/mL | C[C@H]1CC[C@]2(NC1)O[C@H]1C[C@H]3[C@@H]4CC[C@H]5CC(NC[C@@H](N)Cc6ccc(Cl)cc6Cl)CC[C@]5(C)[C@H]4CC[C@]3(C)[C@H]1[C@@H]2C (mixture of isomers) | – | – | – | – | – | –
2 | – | – | – | O=[N+]([O-])c1ccc(Cl)c2nonc12 | – | – | – | 3940 nM | – | 1700 nM
3 | 8 µg/mL | 5 µg/mL | 2 µg/mL | C[C@H]1CC[C@]2(NC1)O[C@H]1C[C@H]3[C@@H]4CC[C@H]5CC(NC[C@@H](N)Cc6cccc(C(F)(F)F)c6)CC[C@]5(C)[C@H]4CC[C@]3(C)[C@H]1[C@@H]2C (mixture of isomers) | – | – | – | – | – | –
4 | 8 µg/mL | 2 µg/mL | 1 µg/mL | C[C@H]1CC[C@]2(NC1)O[C@H]1C[C@H]3[C@@H]4CC[C@H]5CC(NC[C@@H](N)Cc6ccc(C(F)(F)F)cc6)CC[C@]5(C)[C@H]4CC[C@]3(C)[C@H]1[C@@H]2C (mixture of isomers) | – | – | – | – | – | –
5 | > 64 µg/mL | 4 µg/mL | – | C[C@H]1CC[C@]2(NC1)O[C@H]1C[C@H]3[C@@H]4CC[C@H]5CC(NC[C@@H](N)C(c6ccccc6)c6ccccc6)CC[C@]5(C)[C@H]4CC[C@]3(C)[C@H]1[C@@H]2C (mixture of isomers) | – | – | – | – | – | –
6 | 16 µg/mL | 4 µg/mL | – | C[C@H]1CC[C@]2(NC1)O[C@H]1C[C@H]3[C@@H]4CC[C@H]5CC(NC[C@@H](N)CC6CCCCC6)CC[C@]5(C)[C@H]4CC[C@]3(C)[C@H]1[C@@H]2C (mixture of isomers) | – | – | – | – | – | –
7 | 128 µg/mL | 8 µg/mL | – | C[C@H]1CC[C@]2(NC1)O[C@H]1C[C@H]3[C@@H]4CC[C@H]5CC(NCCN(C)C)CC[C@]5(C)[C@H]4CC[C@]3(C)[C@H]1[C@@H]2C (mixture of isomers) | – | – | – | – | – | –
8 | > 128 µg/mL | > 128 µg/mL | – | COC(=O)CNC1CC[C@@]2(C)[C@@H](CC[C@@H]3[C@@H]2CC[C@]2(C)[C@@H]4[C@H](C[C@@H]32)O[C@@]2(CC[C@H](C)CN2)[C@H]4C)C1 (mixture of isomers) | – | – | – | – | – | –
9 | 32 µg/mL | 4 µg/mL | ≤ 0.25 µg/mL | C[C@H]1CC[C@]2(NC1)O[C@H]1C[C@H]3[C@@H]4CC[C@H]5CC(NC[C@@H](N)Cc6ccc(F)cc6)CC[C@]5(C)[C@H]4CC[C@]3(C)[C@H]1[C@@H]2C (mixture of isomers) | – | – | – | – | – | –
10 | > 128 µg/mL | 8 µg/mL | – | CCCC(N)(CCC)CNC1CC[C@@]2(C)[C@@H](CC[C@@H]3[C@@H]2CC[C@]2(C)[C@@H]4[C@H](C[C@@H]32)O[C@@]2(CC[C@H](C)CN2)[C@H]4C)C1 (mixture of isomers) | – | – | – | – | – | –
11 | 8 µg/mL | 2 µg/mL | ≤ 0.25 µg/mL | C[C@H]1CC[C@]2(NC1)O[C@H]1C[C@H]3[C@@H]4CC[C@H]5CC(NC[C@@H](N)Cc6ccc(Cl)cc6)CC[C@]5(C)[C@H]4CC[C@]3(C)[C@H]1[C@@H]2C (mixture of isomers) | – | – | – | – | 2 | –
12 | 32 µg/mL | 8 µg/mL | – | C[C@H]1CC[C@]2(NC1)O[C@H]1C[C@H]3[C@@H]4CC[C@H]5CC(NC[C@@H](N)Cc6c[nH]cn6)CC[C@]5(C)[C@H]4CC[C@]3(C)[C@H]1[C@@H]2C (mixture of isomers) | – | – | – | – | – | –
13 | 64 µg/mL | 8 µg/mL | – | C[C@H]1CC[C@]2(NC1)O[C@H]1C[C@H]3[C@@H]4CC[C@H]5CC(NCCNC(=N)N)CC[C@]5(C)[C@H]4CC[C@]3(C)[C@H]1[C@@H]2C (mixture of isomers) | – | – | – | – | – | –
14 | 32 µg/mL | 2 µg/mL | 0.5 µg/mL | C[C@H]1CC[C@]2(NC1)O[C@H]1C[C@H]3[C@@H]4CC[C@H]5CC(NC[C@@H](N)Cc6ccccc6C(F)(F)F)CC[C@]5(C)[C@H]4CC[C@]3(C)[C@H]1[C@@H]2C (mixture of isomers) | – | – | – | – | – | –
15 | 8 µg/mL | 2 µg/mL | ≤ 0.25 µg/mL | C[C@H]1CC[C@]2(NC1)O[C@H]1C[C@H]3[C@@H]4CC[C@H]5CC(NC[C@@H](N)Cc6ccc(Br)cc6)CC[C@]5(C)[C@H]4CC[C@]3(C)[C@H]1[C@@H]2C (some centres not stated) | – | – | – | – | 2 | –
16 | > 128 µg/mL | 64 µg/mL | – | C[C@H]1CC[C@]2(NC1)O[C@H]1C[C@H]3[C@@H]4CC[C@H]5CC(NCCN6CCNC6=O)CC[C@]5(C)[C@H]4CC[C@]3(C)[C@H]1[C@@H]2C (mixture of isomers) | – | – | – | – | – | –
17 | > 128 µg/mL | 32 µg/mL | – | C[C@H]1CC[C@]2(NC1)O[C@H]1C[C@H]3[C@@H]4CC[C@H]5CC(NCc6cn(C)cn6)CC[C@]5(C)[C@H]4CC[C@]3(C)[C@H]1[C@@H]2C (mixture of isomers) | – | – | – | – | – | –
18 | 32 µg/mL | 4 µg/mL | – | C[C@H]1CC[C@]2(NC1)O[C@H]1C[C@H]3[C@@H]4CC[C@H]5CC(NC[C@H](N)CCc6ccccc6)CC[C@]5(C)[C@H]4CC[C@]3(C)[C@H]1[C@@H]2C (some centres not stated) | – | – | – | – | – | –

Row | SMILES | MIC (Escherichia coli [1]) | MIC (Staphylococcus aureus [2]) | MIC (Staphylococcus aureus [7]) | MIC (Escherichia coli [3]) | MIC (Escherichia coli [4]) | MIC (Escherichia coli [5]) | IC50 [6] | fold change (FC) (Escherichia coli [8]) | IC50 [9]
19 | C[C@H]1CC[C@]2(NC1)O[C@H]1C[C@H]3[C@@H]4CC[C@H]5CC(N[C@@H]6CCNC6)CC[C@]5(C)[C@H]4CC[C@]3(C)[C@H]1[C@@H]2C (mixture of isomers) | 64 µg/mL | 32 µg/mL | – | 64 µg/mL | 32 µg/mL | 32 µg/mL | 4700 nM | – | –
20 | C[C@H]1CC[C@]2(NC1)O[C@H]1C[C@H]3[C@@H]4CC[C@H]5CC(NC[C@@H](N)Cc6ccc(I)cc6)CC[C@]5(C)[C@H]4CC[C@]3(C)[C@H]1[C@@H]2C (mixture of isomers) | 4 µg/mL | 2 µg/mL | ≤ 0.25 µg/mL | 8 µg/mL | 4 µg/mL | 2 µg/mL | 1500 nM | 2 | –
21 | C[C@H]1CC[C@]2(NC1)O[C@H]1C[C@H]3[C@@H]4CC[C@H]5CC(NC[C@@H](N)Cc6c[nH]c7ccccc67)CC[C@]5(C)[C@H]4CC[C@]3(C)[C@H]1[C@@H]2C (mixture of isomers) | 8 µg/mL | 2 µg/mL | – | 16 µg/mL | 4 µg/mL | 2 µg/mL | 1900 nM | – | –
22 | C[C@H]1CC[C@]2(NC1)O[C@H]1C[C@H]3[C@@H]4CC[C@H]5CC(NC[C@@H](N)Cc6ccncc6)CC[C@]5(C)[C@H]4CC[C@]3(C)[C@H]1[C@@H]2C (mixture of isomers) | > 128 µg/mL | 16 µg/mL | – | > 128 µg/mL | 32 µg/mL | 16 µg/mL | 1500 nM | – | –
23 | C[C@H]1CC[C@]2(NC1)O[C@H]1C[C@H]3[C@@H]4CC[C@H]5CC(NC[C@@H](N)Cc6ccc7ccccc7c6)CC[C@]5(C)[C@H]4CC[C@]3(C)[C@H]1[C@@H]2C (mixture of isomers) | 8 µg/mL | 1 µg/mL | – | 16 µg/mL | 4 µg/mL | 8 µg/mL | 2000 nM | – | –
24 | C[C@H]1CC[C@]2(NC1)O[C@H]1C[C@H]3[C@@H]4CC[C@H]5CC(NCCN6CCCC6)CC[C@]5(C)[C@H]4CC[C@]3(C)[C@H]1[C@@H]2C (mixture of isomers) | 64 µg/mL | – | – | 64 µg/mL | 8 µg/mL | 0.5 µg/mL | 900 nM | – | –
25 | C[C@H]1CC[C@]2(NC1)O[C@H]1C[C@H]3[C@@H]4CC[C@H]5CC(NC[C@@H](N)Cc6ccc(-c7ccccc7)cc6)CC[C@]5(C)[C@H]4CC[C@]3(C)[C@H]1[C@@H]2C (mixture of isomers) | 8 µg/mL | 2 µg/mL | – | 8 µg/mL | 8 µg/mL | 2 µg/mL | 3400 nM | – | –
26 | C[C@H]1CC[C@]2(NC1)O[C@H]1C[C@H]3[C@@H]4CC[C@H]5CC(NCCN)CC[C@]5(C)[C@H]4CC[C@]3(C)[C@H]1[C@@H]2C (some centres not stated) | 32 µg/mL | 8 µg/mL | 0.006 µg/mL | 16 µg/mL (≈ 35 µM) | 8 µg/mL (≈ 17.5 µM) | 0.5 µg/mL (≈ 1.09 µM) | 1300 nM | – | –
27 | C[C@H]1CC[C@]2(NC1)O[C@H]1C[C@H]3[C@@H]4CC[C@H]5CC(NC[C@@H](N)Cc6ccccc6)CC[C@]5(C)[C@H]4CC[C@]3(C)[C@H]1[C@@H]2C (mixture of isomers) | 32 µg/mL | 4 µg/mL | – | 32 µg/mL | 8 µg/mL | 4 µg/mL | 1300 nM | – | –
28 | C[C@H]1CC[C@]2(NC1)O[C@H]1C[C@H]3[C@@H]4CC[C@H]5CC(NCCN6CCOCC6)CC[C@]5(C)[C@H]4CC[C@]3(C)[C@H]1[C@@H]2C (mixture of isomers) | > 128 µg/mL | 64 µg/mL | – | > 128 µg/mL | 128 µg/mL | 64 µg/mL | 6500 nM | – | –
